In patent publication US6147100A, “Pyrrolidine derivatives having phospholipase A2 inhibitory activity” (Shionogi & Co., Ltd., priority 1997, dated 2000):

Assays:
cPLA2 = target: T1, cPLA2 (Homo sapiens, UniProt P47712); experiment: cPLA2 Inhibitory Activity; assay type: biochemical; details: 1-palmitoyl-2-[14C]-arachidonoyl-sn-glycero-3-phosphocholine 2.5 μM, sn-1,2-dioleoylglycerol 1.25 μM; pH 7.5, 15 min at 37° C.
T1 sequence (P47712 1-749): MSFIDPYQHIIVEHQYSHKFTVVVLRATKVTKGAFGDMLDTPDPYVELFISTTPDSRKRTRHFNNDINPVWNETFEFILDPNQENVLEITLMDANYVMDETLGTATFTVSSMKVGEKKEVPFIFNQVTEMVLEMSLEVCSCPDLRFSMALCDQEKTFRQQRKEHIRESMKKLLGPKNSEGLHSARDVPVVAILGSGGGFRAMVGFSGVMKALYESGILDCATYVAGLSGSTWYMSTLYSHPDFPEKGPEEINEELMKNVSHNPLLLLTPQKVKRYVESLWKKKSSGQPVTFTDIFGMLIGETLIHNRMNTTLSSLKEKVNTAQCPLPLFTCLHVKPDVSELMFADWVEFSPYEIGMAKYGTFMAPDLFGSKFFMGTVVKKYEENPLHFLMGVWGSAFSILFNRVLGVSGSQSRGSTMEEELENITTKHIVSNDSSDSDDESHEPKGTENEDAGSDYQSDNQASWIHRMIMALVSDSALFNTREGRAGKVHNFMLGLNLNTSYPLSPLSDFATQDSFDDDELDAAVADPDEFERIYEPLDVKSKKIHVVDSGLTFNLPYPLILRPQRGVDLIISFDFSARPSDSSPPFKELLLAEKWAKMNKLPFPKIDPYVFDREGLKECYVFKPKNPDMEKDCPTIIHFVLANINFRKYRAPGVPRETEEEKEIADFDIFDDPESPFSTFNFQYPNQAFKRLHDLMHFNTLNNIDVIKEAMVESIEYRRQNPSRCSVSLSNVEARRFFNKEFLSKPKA
Outline: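 Radiometric assay in 50 mM HEPES pH 7.5 with 1 mM CaCl2, 150 mM NaCl, 0.1 mg/ml BSA and 1.7 mM DTT; compound and substrate added, reaction started with enzyme, 15 min at 37° C. Released fatty acids extracted (Dole method), counted by liquid scintillation versus no-compound control.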

[1] = tested on: production of prostaglandin E2 by human fibroblasts; experiment: Inhibition of Production of Prostaglandin E2 in Human Fibroblasts (IL-1 stimulation); assay type: cell-based; details: Fibroblast; human fibroblasts under stimulation with IL-1
Outline: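 Human fibroblasts stimulated with IL-1, with prostaglandin E2 production measured in the presence of compound as a cellular read-out of cPLA2 inhibition.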

| SMILES | IC50 (cPLA2) [nM] | IC50 [1] [nM] |
| --- | --- | --- |
| O=C1NC(=S)S/C1=C\c1ccc(NC(=O)[C@@H]2C[C@@H](OCc3ccccc3-c3ccccc3)CN2C(=O)c2ccccc2C(=O)c2ccc(F)cc2)s1 [Compound B-7] | 1000 | 8100 |
| O=C1NC(=O)/C(=C/c2ccc(C(=O)NC[C@@H]3C[C@@H](Oc4ccccc4-c4cccc5c4OCO5)CN3C(=O)c3ccccc3C(=O)c3ccc(F)cc3)cc2)S1 [Compound A-102] | 52 | 330 |
| CN(Cc1ccccc1-c1ccccc1)[C@@H]1C[C@@H](C(=O)Nc2ccc(/C=C3\SC(=S)NC3=O)cc2)N(C(=O)c2ccccc2C(=O)c2ccc(F)cc2)C1 [Compound N-3] | 59 | 1000 |
| O=C1NC(=O)/C(=C/c2ccc(C(=O)NC[C@@H]3C[C@@H](Oc4ccccc4-c4cccc5ccccc45)CN3C(=O)c3ccccc3C(=O)c3ccc(F)cc3)cc2)S1 [Compound A-94] | 24 | 1400 |
| O=C1NC(=O)/C(=C/c2ccc(C(=O)NC[C@@H]3C[C@@H](SCc4ccccc4-c4ccccc4)CN3C(=O)c3ccccc3C(=O)c3ccc(F)cc3)cc2)S1 [Compound I-5] | 34 | 490 |
| O=C1NC(=O)/C(=C/c2ccc(C(=O)NC[C@@H]3C[C@@H](OCc4ccccc4-c4ccccc4)CN3C(=O)c3ccccc3C(=O)C3CCCCC3)cc2)S1 [Compound A-14] | 370 | 330 |
| CN(Cc1ccccc1)[C@@H]1C[C@@H](C(=O)Nc2ccc(/C=C3\SC(=S)NC3=O)cc2)N(C(=O)c2ccccc2C(=O)c2ccc(F)cc2)C1 [Compound N-1] | 140 | 760 |
| O=C1NC(=O)/C(=C/c2ccc(C(=O)NC[C@@H]3C[C@@H](Oc4ccccc4-c4cccc(C(F)(F)F)c4)CN3C(=O)c3ccccc3C(=O)c3ccc(F)cc3)cc2)S1 [Compound A-109] | 59 | 1200 |
| O=C1NC(=O)/C(=C/c2ccc(C(=O)NC[C@@H]3C[C@@H](OCc4ccccc4-c4ccsc4)CN3C(=O)c3ccccc3C(=O)c3ccc(F)cc3)cc2)S1 [Compound A-38] | 84 | 430 |
| O=C1NC(=O)/C(=C/c2ccc(C(=O)NC[C@@H]3C[C@@H](OCc4ccccc4)CN3C(=O)c3ccccc3C(=O)c3ccccc3)cc2)S1 [Compound A-2] | 1200 | 730 |
| O=C1NC(=O)/C(=C/c2ccc(C(=O)NC[C@@H]3C[C@@H](Oc4cccc(-c5ccccc5)c4)CN3C(=O)c3ccccc3C(=O)c3ccc(F)cc3)cc2)S1 [Compound A-69] | 72 | 190 |
| COc1cccc(-c2ccccc2O[C@@H]2C[C@@H](CNC(=O)c3ccc(/C=C4\SC(=O)NC4=O)cc3)N(C(=O)c3ccccc3C(=O)c3ccc(F)cc3)C2)c1 [Compound A-98] | 59 | 440 |
| CC(C)CN(Cc1ccccc1-c1ccccc1)[C@@H]1C[C@@H](CNC(=O)c2ccc(/C=C3\SC(=O)NC3=O)cc2)N(C(=O)c2ccccc2C(=O)c2ccc(F)cc2)C1 [Compound M-10] | 22 | 270 |
| O=C1NC(=O)/C(=C/c2ccc(S(=O)(=O)NC[C@@H]3C[C@@H](SCc4ccccc4-c4ccccc4)CN3C(=O)c3ccccc3C(=O)c3ccc(F)cc3)s2)S1 [Compound I-9] | 240 | 1800 |
| O=C1NC(=O)C(=C/C=C/c2ccc(C(=O)NC[C@@H]3C[C@@H](OCc4ccccc4-c4ccccc4)CN3C(=O)c3ccccc3C(=O)c3ccc(F)cc3)cc2)S1 [Compound A-49] | 49 | 120 |
| Cc1ccc(C(=O)c2ccccc2C(=O)N2C[C@H](OCc3ccccc3-c3ccccc3)C[C@H]2CNC(=O)c2ccc(/C=C3\SC(=S)NC3=O)cc2)cc1 [Compound A-27] | 430 | 1200 |
| O=C1NC(=O)/C(=C/c2ccc(C(=O)NC[C@@H]3C[C@@H](SCc4ccccc4-c4ccccc4)CN3C(=O)c3ccccc3C(=O)c3ccc(F)cc3)s2)S1 [Compound I-7] | 39 | 690 |
| O=C1NC(=O)/C(=C/c2ccc(C(=O)NC[C@@H]3C[C@@H](Oc4ccc5ccccc5c4-c4ccccc4)CN3C(=O)c3ccccc3C(=O)c3ccc(F)cc3)cc2)S1 [Compound A-86] | 28 | 93 |
| O=C1NC(=S)S/C1=C\c1ccc(C(=O)NC[C@@H]2C[C@@H](OCc3ccccc3-c3ccccc3)CN2C(=O)c2ccccc2C(=O)c2ccc(Cl)cc2)cc1 [Compound A-28] | 280 | 1400 |

| SMILES | IC50 (cPLA2) [nM] | IC50 [1] [nM] |
| --- | --- | --- |
| O=C1NC(=O)/C(=C/c2ccc(C(=O)NC[C@@H]3C[C@@H](OCc4ccccc4-c4cccs4)CN3C(=O)c3ccccc3C(=O)c3ccc(F)cc3)cc2)S1 [Compound A-37] | 73 | 280 |
| CC(C)c1ccccc1-c1ccccc1O[C@@H]1C[C@@H](CNC(=O)c2ccc(/C=C3\SC(=O)NC3=O)cc2)N(C(=O)c2ccccc2C(=O)c2ccc(F)cc2)C1 [Compound A-115] | 10 | 4600 |
| CN(c1ccccc1)c1cccc(O[C@@H]2C[C@@H](CNC(=O)c3ccc(/C=C4\SC(=O)NC4=O)cc3)N(C(=O)c3ccccc3C(=O)c3ccc(F)cc3)C2)c1 [Compound A-91] | 50 | 940 |
| O=C1NC(=O)/C(=C/c2ccc(NC(=O)[C@@H]3C[C@@H](OCc4ccccc4-c4ccccc4)CN3C(=O)c3ccccc3C(=O)c3ccc(F)cc3)cc2)S1 [Compound B-1] | 210 | 12000 |
| COc1cccc(-c2ccccc2)c1O[C@@H]1C[C@@H](CNC(=O)c2ccc(/C=C3\SC(=O)NC3=O)cc2)N(C(=O)c2ccccc2C(=O)c2ccc(F)cc2)C1 [Compound A-117] | 15 | 200 |
| O=C1NC(=S)S/C1=C\c1ccc(NC(=O)[C@@H]2C[C@@H](SCc3ccccc3-c3ccccc3)CN2C(=O)c2ccccc2C(=O)c2ccc(F)cc2)c(O)c1 [Compound J-7] | 500 | 6200 |
| O=C1NC(=O)/C(=C/c2ccc(C(=O)NC[C@@H]3C[C@@H](OCc4ccccc4-c4cccc(C(F)(F)F)c4)CN3C(=O)c3ccccc3C(=O)c3ccc(F)cc3)cc2)S1 [Compound A-44] | 57 | 550 |
| Cc1ccccc1-c1ccccc1O[C@@H]1C[C@@H](CNC(=O)c2ccc(/C=C3\SC(=O)NC3=O)cc2)N(C(=O)c2ccccc2C(=O)c2ccc(F)cc2)C1 [Compound A-97] | 51 | 640 |
| O=C1NC(=O)/C(=C/c2ccc(C(=O)NC[C@@H]3C[C@@H](OCc4ccccc4Cc4ccccc4)CN3C(=O)c3ccccc3C(=O)c3ccc(F)cc3)cc2)S1 [Compound A-32] | 67 | 570 |
| O=C1NC(=O)/C(=C/c2ccc(C(=O)NC[C@@H]3C[C@@H](OCc4ccc(-c5ccccc5)cc4)CN3C(=O)c3ccccc3C(=O)c3ccccc3)cc2)S1 [Compound A-4] | 300 | 210 |
| O=C1NC(=O)/C(=C/c2ccc(C(=O)NC[C@@H]3C[C@@H](OCc4ccccc4-c4ccccc4)CN3C(=O)c3ccccc3C(=O)c3ccccc3)cc2)S1 [Compound A-1] | 170 | 170 |
| O=C(/C=C/c1ccc(/C=C2\SC(=O)NC2=O)cc1)NC[C@@H]1C[C@@H](OCc2ccccc2-c2ccccc2)CN1C(=O)c1ccccc1C(=O)c1ccc(F)cc1 [Compound A-52] | 53 | 620 |
| O=C1NC(=S)S/C1=C\c1ccc(S(=O)(=O)NC[C@@H]2C[C@@H](SCc3ccccc3-c3ccccc3)CN2C(=O)c2ccccc2C(=O)c2ccc(F)cc2)cc1 [Compound I-4] | 480 | 1300 |
| COc1ccccc1-c1ccccc1O[C@@H]1C[C@@H](CNC(=O)c2ccc(/C=C3\SC(=O)NC3=O)cc2)N(C(=O)c2ccccc2C(=O)c2ccc(F)cc2)C1 [Compound A-107] | 41 | 1100 |
| O=C1NC(=O)/C(=C/c2ccc(C(=O)NC[C@@H]3C[C@@H](Oc4ccccc4-c4cccc([N+](=O)[O-])c4)CN3C(=O)c3ccccc3C(=O)c3ccc(F)cc3)cc2)S1 [Compound A-111] | 66 | 470 |
| O=C1NC(=O)/C(=C/c2ccc(C(=O)NC[C@@H]3C[C@@H](OCc4ccccc4-c4ccccc4)CN3C(=O)C3CCCCC3C(=O)c3ccccc3)cc2)S1 (some centres unmarked) [Compound A-10] | 3200 | 470 |
| CN(Cc1ccccc1)c1ccccc1CO[C@@H]1C[C@@H](CNC(=O)c2ccc(/C=C3\SC(=O)NC3=O)cc2)N(C(=O)c2ccccc2C(=O)c2ccc(F)cc2)C1 [Compound A-43] | 52 | 560 |
| O=C1NC(=O)/C(=C/c2ccc(C(=O)NC[C@@H]3C[C@@H](Oc4ccc5ccccc5c4)CN3C(=O)c3ccccc3C(=O)c3ccc(F)cc3)cc2)S1 [Compound A-71] | 190 | 310 |
